According to patent US20220267281A1, “UNSATURATED HETEROCYCLOALKYL AND HETEROAROMATIC ACYL HYDRAZONE LINKERS, METHODS AND USES THEREOF” (priority 2019, published 2022):

Tested on: SKOV3 ovarian cells
Test: Cytotoxicity of ADCs against SKOV3 cell lines (viable cells by ATP content, CellTiter-Glo)
Type: cell-based
Details: SKOV3 ovarian cancer cells, 3 to 5 days incubation with ADC, % survival curve fit
Experimental: The cytotoxic activity of Trastuzumab ADCs of Formula (IV) was tested against SKOV3 ovarian cell lines
SKOV3 ovarian cells were incubated with the effectors for a period corresponding to 2 to 3 times their estimated doubling time and the amount of viable cells was determine by measuring ATP content in the wells. […] All ADCs were diluted in DPBS to 6× the highest concentration tested, followed by 10 3-fold serial dilutions in DPBS for a total of 11 concentration points. Each point was added to triplicate wells. DPBS was added in wells to measure the maximum growth. Cells were diluted at their appropriate seeding density (ranging from 150 to 1000 cells per well) in complete media supplemented with glutamine 2 mM, serum and antibiotic cocktail. […] Total ATP was measured using CellTiter-Glo™ reagent from Promega as recommended by the supplier. […] Signal output was measured on a luminescence plate reader (Envision™, Perkin Elmer) set at an integration time of 0.1 sec. […]
Each concentration point (S) was normalized to the negative control wells (NC) and expressed as % survival (NC-S/NC×100). Potency (IC50) and efficacy were calculated from a non-linear curve fit of the points versus log of the concentrations without constrain on the slope. Refined data were analysed using Prism™ software.

Synagis-SMCC-DM1: negative control ADC
IC50: 4.01 nM
